Patent publication US9193681B1, “Propionic acids, propionic acid esters, and related compounds” (Promentis Pharmaceuticals, Inc., priority 2014, dated 2015)

Legend:
[1] = system: human glial cells from brain astrocytoma (1321N1); experiment: 14C-cystine uptake in human glial cell culture; format: cell-based; settings: 100 μM (most effective concentration); relative to untreated control; 1321N1 cells; three hour incubation
Description: The screening of the compound was performed using an in vitro culture system of human glial cells from brain astrocytoma (1321N1). Cells were plated on 24 well plates coated with poly-D-lysine and laminin and grown in a balanced salt solution supplemented with 5% heat inactivated horse serum, 5% fetal bovine serum, 2 mM glutamine and glucose (total 21 mM). Cultures were maintained in humidified 5% CO2 incubators at 37° C. for 3-4 days before experiments were performed, at this time the cultures has formed a single confluent layer. For experiments, cultures are washed 3 times into a Na-free HEPES and HCO3^− buffered balanced salt solution. After 1 hour, the test compounds are added. Following a three hour incubation, ^14C-cystine (0.025 mCi/mL) was then added for 20 minutes. Following the ^14C-cystine exposure, cultures were washed 3 times with ice cold HEPES buffered saline solution and dissolved in 250 μl sodium dodecyl sulfate (0.1%). An aliquot (200 μl) was removed and added to scintillation fluid for counting. Values were normalized to ^14C-cystine uptake in untreated controls on the same experimental plate.

[2] = system: human glial cells from brain astrocytoma (1321N1); experiment: 3H-glutamate release from human glial cell culture; format: cell-based; settings: at 3 hours; 100 μM; relative to untreated control; 1321N1 cells
Description: This assay also uses the cell culture system of human glial cells from brain astrocytoma (1321N1) described above. Initially, cells are washed, and ^3H-glutamate is added (PerkinElmer: 1 mCi/mL stock solution is diluted (30 μL+500 μL HBBSS) and 10 μL of diluted radiolabel is added to each well). Following a 1 hour incubation to load the cells with the labeled glutamate, the cells are washed again with HBBSS, and the drug is added. At 30, 90, and 180 minutes, 50 μL of extracellular media is sampled from each well and is measured using a Beckman LS 6500 scintillation counter.

[3] = system: mixed cortical cell cultures containing glial and neuronal cells; experiment: In vitro thiol experiment: intracellular cysteine levels; format: cell-based, mice; settings: 100 μM
Description: Mixed cortical cell cultures containing glial and neuronal cells were prepared from fetal (15-16 day gestation) mice as previously described. Lobner D, Comparison of the LDH and MTT assays for quantifying cell death: validity for neuronal apoptosis?, J Neurosci Methods, 2000, Mar. 15, 96(2), 147-152). Dissociated cortical cells were plated on 24-well plates coated with poly-D-lysine and laminin in Eagles' Minimal Essential Medium (MEM, Earle's salts, supplied glutamine-free) supplemented with 5% heat-inactivated horse serum, 5% fetal bovine serum, 2 mM glutamine and glucose (total 21 mM). Cultures were maintained in humidified 5% CO2 incubators at 37° C. […]
Samples were then sonicated with a Fisher Scientific 60 Sonic Dismembrator. One fraction of this homogenate was analyzed with the Pierce BCA (bicinchoninic acid) method to determine protein concentration. The other fraction was filtered using 3 K molecular weight cutoff, polyethersulfone centrifugal protein filters, and analyzed for thiol content using high-performance liquid chromatography (ALF-115 column, 150×1.0 mm, 3 μm C18; mobile phase: 50 mM citric acid, 10 mM octanesulfonic acid, 2% acetonitrile, pH 2.8, 50 uL/min flow rate) with electrochemical detection (Decade II, Au working electrode, Flex Cell HyREF, 0.55V, Antec Leyden, Netherlands).

rats [4] = experiment: Prepulse inhibition experiment (MK-801-induced deficit); format: in vivo, rat; settings: 3 mg/kg P.O., MK-801 0.1 mg/kg SC, MK-801 plus vehicle control about 18%
Description: Rats were placed on a platform in a sound attenuating chamber (10.875″×14″×19.5″; Hamilton Kinder, Calif.) that rested on a motion sensing plate. During all sessions, the background noise was held constant at 60 dB. A matching session was conducted to determine the magnitude of the average startle response for each rat. This session consisted of a five minute habituation period followed by 20 trials; 17 trials involved the presentation of a single auditory stimulus (pulse stimulus; 50 dB above the background noise) and three trials in which a pre-pulse stimulus (12 db above background) was presented 100 ms before the pulse auditory stimulus. Rats were then assigned into the various treatment groups so that the magnitude of the startle response was equivalent across all groups. Two days later, a testing session was conducted to assess sensorimotor gating. One hour prior to testing, rats received a prodrug (0-100 mg/kg, P.O.) and 55 minutes later acute MK-801 maleate (0.1 mg/kg, SC). […] All startle responses were normalized to vehicle control, and the percent of prepulse inhibition was determined as 100−(average prepulse startle response/average startle stimulus alone)*100.

rats [5] = experiment: Elevated-plus maze; format: in vivo, rat
Description: Rats were tested in a standard elevated plus maze; testing occurred in a dimly illuminated room using only two lights mounted over the maze. Animals were allowed to habituate to the room for at least one hour prior to treatment. One hour prior to testing, rats received a Pro-4001 (0-30 mg/kg, P.O.). For testing, the rat was placed in the elevated plus maze for five minutes, alternating the starting position between facing an open arm and facing a closed arm. The session was recorded and an observer blind to treatment recorded the number of explorations, entries and time spent in the open arm. Explorations were defined as the rat placing two feet into an open arm without fully entering said arm. Entries were defined as the rat placing all four feet in an open arm. Time of entry in the open arm was recorded from the time the rat placed four feet in the open arm until two of the rats' feet entered the open square.

## CCOC(=O)[C@H](CSC(=O)[C@@H](N)C(C)C)NC(C)=O.Cl [Pro-4001, ethyl (2R)-3-{[(2S)-2-amino-3-methylbutanoyl]sulfanyl}-2-acetamido-propanoate hydrochloride]
[1]
  decrease in 14C-cystine uptake: 50%
[2]
  increase in 3H-glutamate release: 175%
[3]
  intracellular cysteine concentration: 0.78 µM
  intracellular cysteine concentration, times the control value: approximately 5 times
Rats [4]
  % prepulse inhibition: about 27%
Rats [5]; 10 mg/kg PO
  increase of time spent on the open arm: 50%
  time spent on the open arms: around 21 seconds
Rats [5]; 30 mg/kg PO
  increase of time spent on the open arm: 64%
  time spent on the open arms: around 25 seconds
